Structures can show the parent of a compound that is named as a salt. Where two headings read alike, the source gives them in different places.
Assays:
AtT-20 cell = assay: Experiment for measuring adenylate cyclase activity using AtT-20 cell (CRF-induced cAMP); format: cell-based, mouse; conditions: 1 mM IBMX, intracellular cAMP by ELISA, read-out: adenylate cyclase ability IC50
From the text: Experiment for Measuring Adenyrate Cyclase the Activity Using AtT-20 Cell
• (1) Test procedures: AtT-20 cell is a cell strain derived from mouse pytuitari gland tumor, it is known that the intracellular adenyrate cyclase system is activated in response to corticotrophin release hormone (CRF), to produce cyclic AMP (cAMP), releasing adrenocortical hormone (ACTH) (Biochem. Piophys. Res. Com. 106. 1364-1371, 1982). In this experiment, the cell 1×10^5) suspended in D-MEM medium (0.1% FPS), seeded on a 96-well plate, a phosphodiesterase inhibitor (IBMX, Calbiochem) was added to the final concentration of 1 mM, which was cultured at 37° C. for 30 minutes. A diluted test compound solution and CRF (30 nM) were added, which was further cultured at 37° C. for 10 minutes, cells were collected by centrifugation (500×g, 5 minutes), cells were lysed with a lysis buffer (Amersham Pharmacia), and an amount of intracellular cAMP produced was quantitated using the ELISA method. For ELISA, cAMP EIA system (BIOTRAK™ Amersham Pharmacia) was used. • (2) Calculation of adenyrate cyclase activity inhibitory ability: Treatment of the resulting data was carried out as follows. An amount of cAMP produced by a cell to which 30 nM CRF was added is regarded as 100% (control) and a value of each sample is expressed as % (% of control). The concentration showing 50% in % (% of control) was obtained from a graph where the concentration of a test material is plotted on an abscissa axis and % (% of control) is plotted on a coordinate and IC50 value was calculated (Table 2).

human CRFR1 = biological target: T1, human CRFR1 (Homo sapiens, UniProt P34998); assay: CRFR binding experiment (125I-sauvagine, SPA); conditions: membrane fraction of cell expressing human CRFR1, 40 pM 125I-sauvagine, room temperature, two hours; read-out: CRF1 receptor binding ability IC50
T1 construct: The full length gene of CRFR^1 was obtained by a PCT method using human brain (QuickClone™ Clontech) as cDNA library; expressed in transfected cells; host or cells: Hek 283 cell (so in the source)
T1 sequence (P34998 24-415): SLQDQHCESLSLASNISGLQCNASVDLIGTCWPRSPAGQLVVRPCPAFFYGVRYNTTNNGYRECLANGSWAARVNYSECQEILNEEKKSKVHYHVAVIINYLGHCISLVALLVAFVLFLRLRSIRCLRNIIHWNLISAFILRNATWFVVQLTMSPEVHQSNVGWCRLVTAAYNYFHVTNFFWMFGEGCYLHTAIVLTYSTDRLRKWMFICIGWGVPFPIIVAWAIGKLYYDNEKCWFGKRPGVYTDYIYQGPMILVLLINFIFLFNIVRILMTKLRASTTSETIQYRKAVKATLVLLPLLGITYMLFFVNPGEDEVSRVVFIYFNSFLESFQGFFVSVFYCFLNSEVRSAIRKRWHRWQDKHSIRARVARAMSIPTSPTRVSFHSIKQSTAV
Experimental: • (1) Preparation of CRFR expressing cell: As an experiment material for the CRFR binding experiment, a membrane fraction of a cell which expressed highly human CRFR1. CRFR expressing cell was prepared as follows. The full length gene of CRFR^1 was obtained by a PCT method using human brain (QuickClone™ Clontech) as cDNA library. The resulting DNA fragment was inserted into a cloning vector to confirm the base sequence. A cDNA having the correct base sequence was ligated to an expression vector (pcDNA3.1™, Invitrogen). A gene was inserted into […] cell and grown in a cell culturing solution containing G418 (1 mg/ml) to obtain a resistance cell, into which a CRFR^1 expression vector was cloned by a limitation diluting method. A clone having the high binding ability of membrane and sauvagine per unit protein was finally selected from cloned cells by a binding experiment shown by the method shown below, which was used for an experiment. • (2) Preparation of a membrane fraction: G418 resistant cells into which a gene for CRFR^1 was introduced were collected, and cell rupture was performed by an ultrasound generator with a sonicate buffer (D-PBS-10 mM MgCl2, 2 mM EGTA). A suspension after ultrasound rupture was centrifuged (46,000×g, 10 minutes), the sediment thereof was further resuspended with a sonicate buffer, and the same procedures were related. Finally, the sediment was suspended in a binding buffer (D-PBS-10 mM MgCl2, 2 mM EGTA, 1.5% BSA, 0.15 mM bacitracin, 1× protease inhibitor cocktail (COMPLETE™, Boehringer), to adjust the protein concentration at 1.6 mg/ml, which was used as a membrane fraction. • (3) Binding experiment: Binding experiment with sauvagine was performed using a 96-well plate and SP™ (Amersham pharmacia) An experiment was according to the specification of SPA beads. […] of a membrane fraction protein, 0.5 mg of beads and 40 pM ^125I-sauvaging (Amersham pharmacia) were allowed to stand at room temperature for two hours in the presence a test compound, centrifuged (1,000×g, 5 minutes), and then the radioactivity of each well was measured with TopCount™ (Packard). • (4) Calculation of the binding ability: The radioactivity as the non-specific binding when 1,000-fold excessive amount of non-radioactive sauvagine was added was substacted from each value, the radioactivity where no test material is added is regarded as 100% (control), and each value is shown by % (% of control). The concentration showing 50% in % (% of control) was obtained from a graph where the concentration test material is plotted on an abscissa axis and % (% of control) is plotted on a coordinate axis and IC50 value was calculated (Table 1)

| SMILES | IC50 (AtT-20 cell; Mus musculus, AtT20, 30 nM CRF) | IC50 (human CRFR1) | IC50 (AtT-20 cell; 30 nM CRF) |
| --- | --- | --- | --- |
| CCC(CC)N1CCc2c(C)nc3c(-c4c(C)cc(C)cc4C)c(C)nn3c21 [Example 1, 8-(1-Ethylpropyl)-3-mesityl-2,5-dimethyl-7,8-dihydro-6H-pyrazolo[1,5-a]pyrrolo[3,2-e]pyrimidine hydrochloride] | 900 nM | 100 nM |  |
| CCC(CC)N1c2c(c(C)nc3c(-c4c(C)cc(C)cc4C)c(C)nn23)CC1C (stereo not shown) [Example 13, 8-(1-Ethylpropyl)-mesityl-2,5,7-trimethyl-7,8-dihydro-6H-pyrazolo[1,5-a]pyrrolo[3,2-e]pyrimidine] |  | 2500 nM | 1500 nM |
| Cc1cc(C)c(-c2c(C)nn3c4c(c(C)nc23)CCN4CC2CC2)c(C)c1 [Example 38, 8-(Cyclopropylmethyl)-3-mesityl-2,5-dimethyl-7,8-dihydro-6H-pyrazolo[1,5-a]pyrrolo[3,2-e]pyrimidine hydrochloride] |  | 3000 nM |  |
| COCCN1c2c(c(C)nc3c(-c4c(C)cc(C)cc4C)c(C)nn23)CC1C (stereo not shown) [Example 44, 3-Mesityl-8-(2-methoxyethyl)-2,5,7-trimethyl-7,5-dihydro-6H-pyrazolo[1,5-a]pyrrolo[3,2-e]pyrimidine hydrochloride] |  | 400 nM |  |
| Cc1cc(C)c(-c2c(C)nn3c4c(c(C)nc23)CCN4C2CCCCCC2)c(C)c1 [Example 45, 8-Cycloheptyl-3-mesityl-2,5-dimethyl-7,8-dihydro)-6H-pyrazolo[1,5-a]pyrrolo[3,2-e]pyrimidine hydrochloride] |  | 1500 nM |  |
| CCCC(=O)N1CCc2c(C)nc3c(-c4c(C)cc(C)cc4C)c(C)nn3c21 [Example 74, 1-(3-Mesityl-2,5-dimethyl-7,8-dihydro-6H-pyrazolo[1,5-a]pyrrolo[3,2-e]pyrimidin-8-yl)-1-butanone] |  | 1400 nM |  |

The next lines start with results.

| IC50 (AtT-20 cell; Mus musculus, AtT20, 30 nM CRF) | IC50 (human CRFR1) | SMILES | IC50 (AtT-20 cell; 30 nM CRF) |
| --- | --- | --- | --- |
|  | 500 nM | CCCCN1CCc2c(C)nc3c(-c4c(C)cc(C)cc4C)c(C)nn3c21 [Example 2, 8-Butyl-3-mesityl-2,5-dimethyl-7,8-dihydro-pyrazolo[1,5-a]pyrrolo[3,2-e]pyrimidine hydrochloride] |  |
|  | 600 nM | CCCC(CCC)N1CCc2c(C)nc3c(-c4cnc(N(C)C)cc4C)c(C)nn3c21 [Example 3, N-5-[2,5-Dimethyl-8-(1-propylbutyl)-7,8-dihydro-6H-pyrazolo[1,5-a]pyrrolo[3,2-e]pyrimidin-3-yl]-4-methyl-2-pyridyl-N,N-dimethylamine hydrochloride] |  |
|  | 1000 nM | CCCC(CCC)N1CCc2c(C)nc3c(-c4c(C)cc(C)cc4C)c(C)nn3c21 [Example 6, 3-Mesityl-2,5-dimethyl-8-(1-propylbutyl)-7,8-dihydro-6H-pyrazolo[1,5-a]pyrrolo[3,2]-pyrimidine hydrochloride] |  |
|  | 1500 nM | CCC(CC)N1CCCc2c(C)nc3c(-c4c(C)cc(C)cc4C)c(C)nn3c21 [Example 12, 9-(1-Ethylpropyl)-3-mesityl-2,5-dimethyl-6,7,8,9-tetrahydropyrazolo[1,5-a]pyrido[3,2-e]pyrimidine] |  |
|  | 1500 nM | CCc1nn2c3c(c(C)nc2c1-c1c(C)cc(C)cc1C)CCN3C(CC)CC [Example 23, 2-Ethyl-8-(1-ethylpropyl)-3-mesityl-5-methyl-7,8-dihydro-6H-pyrazolo[1,5-a]pyrrolo[3,2-e]pyrimidine] |  |
|  | 1000 nM | CCC(CC)N1CCc2c(C)nc3c(-c4ccc(Cl)cc4Cl)c(C)nn3c21 [Example 33, 3-(2,4-Dichlorophenyl)-8-(1 ethylpropyl)-2,5-dimethyl-7,8-dihydro-6H-pyrazolo[1,5-a]pyrrolo[3,2-e]pyrimidine hydrochloride] |  |
| 2000 nM | 200 nM | CCC(CC)n1ccc2c(C)nc3c(-c4c(C)cc(C)cc4C)c(C)nn3c21 [Example 67, 8-(1-Ethylpropyl)-3-mesityl-2,5-dimethyl-8H-pyrazolo[1,5-a]pyrrolo[3,2-e]pyrimidine] |  |

— patent publication US6927221B2, “Tricyclic fused heterocyclic compound, process for preparing it and medicament comprising it” (Eisai Co., Ltd., priority 1999, dated 2005)
